According to US10047098B2, “C5-C6-oxacyclic fused iminopyrimidinone compounds as bace inhibitors, compositions, and their use” (Merck Sharp & Dohme Corp., priority 2014, dated 2018):

Tests used:
[1] = target: purified human autoBACE-2 (Homo sapiens (Human), UniProt Q9Y5Z0); assay: BACE-2 Assay (BACE-HTRF assay); assay type: biochemical; settings: Ki calculated from IC50 using the Cheng-Prusoff equation; QSY7-EISEVNLDAEFC-Eu-amide substrate, pH 5.0
Experimental: Inhibitor IC50s at purified human autoBACE-2 are determined in a time-resolved endpoint proteolysis assay that measures hydrolysis of the QSY7-[…]-Eu-amide FRET peptide substrate (BACE-HTRF assay). […] DMSO is present at 5% final concentration in the assay. Following laser excitation of sample wells at 320 nm, the fluorescence signal at 620 nm is collected for 400 ms following a 50 μs delay on a RUBYstar HTRF plate reader (BMG Labtechnologies). Raw RFU data is normalized to maximum (1.0 nM BACE/DMSO) and minimum (no enzyme/DMSO) RFU values. […] The Ki values are calculated from the IC50 using the Cheng-Prusoff equation.

[2] = target: Recombinant human soluble BACE1 catalytic domain (Homo sapiens (Human), UniProt P56817); assay: BACE1 HTRF FRET Assay; assay type: biochemical; settings: Ki calculated from IC50 using the Cheng-Prusoff equation; QSY7-APPswe-Eu substrate, pH 5.0; read-out: BACE-1 Ki
Chain of Recombinant human soluble BACE1 catalytic domain (P56817 75-416): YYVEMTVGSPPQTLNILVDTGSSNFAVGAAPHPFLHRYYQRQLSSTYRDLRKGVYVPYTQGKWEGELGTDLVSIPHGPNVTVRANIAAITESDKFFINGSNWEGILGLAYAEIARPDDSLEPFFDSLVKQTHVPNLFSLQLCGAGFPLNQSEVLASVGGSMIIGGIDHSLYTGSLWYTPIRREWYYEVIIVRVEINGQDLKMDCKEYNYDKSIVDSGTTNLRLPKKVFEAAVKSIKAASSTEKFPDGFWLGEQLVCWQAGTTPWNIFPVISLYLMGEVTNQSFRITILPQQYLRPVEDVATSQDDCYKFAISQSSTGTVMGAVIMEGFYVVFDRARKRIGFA
Excerpt: Reagents: Na^+-Acetate pH 5.0; 1% Brij-35; Glycerol; Dimethyl Sulfoxide (DMSO); Recombinant human soluble BACE1 catalytic domain (>95% pure); APP Swedish mutant peptide substrate (QSY7-APP^swe-Eu): QSY7-EISEVNLDAEFC-Europium-amide.
A homogeneous time-resolved FRET assay can be used to determine IC50 values for inhibitors of the soluble human BACE1 catalytic domain. This assay monitors the increase of 620 nm fluorescence that resulted from BACE1 cleavage of an APPswedish APP^swe mutant peptide FRET substrate (QSY7-EISEVNLDAEFC-Europium-amide). This substrate contains an N-terminal QSY7 moiety that serves as a quencher of the C-terminal Europium fluorophore (620 nm Em). In the absence of enzyme activity, 620 nm fluorescence is low in the assay and increased linearly over 3 hours in the presence of uninhibited BACE1 enzyme. Inhibition of BACE1 cleavage of the QSY7-APP^swe-Eu substrate by inhibitors is manifested as a suppression of 620 nm fluorescence.
Varying concentrations of inhibitors at 3× the final desired concentration in a volume of 10 ul are preincubated with purified human BACE1 catalytic domain (3 nM in 10 μl) for 30 minutes at 30° C. in reaction buffer containing 20 mM Na-Acetate pH 5.0, 10% glycerol, 0.1% Brij-35 and 7.5% DSMO. Reactions are initiated by addition of 10 μl of 600 nM QSY7-APP^swe-Eu substrate (200 nM final) to give a final reaction volume of 30 μl in a 384 well Nunc HTRF plate. The reactions are incubated at 30° C. for 1.5 hours. The 620 nm fluorescence is then read on a Rubystar HTRF plate reader (BMG Labtechnologies) using a 50 millisecond delay followed by a 400 millisecond acquisition time window. Inhibitor IC50 values are derived from non-linear regression analysis of concentration response curves. Ki values are then calculated from IC50 values using the Cheng-Prusoff equation using a previously determined […] of 8 μM for the QSY7-APP^swe-Eu substrate at BACE1.

Chain of purified human autoBACE-2 (Q9Y5Z0 63-473 limits assumed): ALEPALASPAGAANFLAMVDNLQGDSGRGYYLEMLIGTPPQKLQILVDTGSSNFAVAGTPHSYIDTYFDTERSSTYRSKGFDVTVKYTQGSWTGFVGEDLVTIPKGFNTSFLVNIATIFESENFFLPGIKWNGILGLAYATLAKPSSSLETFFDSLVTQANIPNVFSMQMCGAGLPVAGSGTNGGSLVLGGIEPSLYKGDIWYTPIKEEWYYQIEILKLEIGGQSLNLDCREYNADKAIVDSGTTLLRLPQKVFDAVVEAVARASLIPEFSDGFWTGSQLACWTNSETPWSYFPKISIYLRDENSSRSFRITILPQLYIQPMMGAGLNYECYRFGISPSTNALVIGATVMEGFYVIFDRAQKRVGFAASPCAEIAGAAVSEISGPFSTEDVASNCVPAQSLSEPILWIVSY

SMILES | Ki [1] [nM] | Ki [2] [nM]
CN1C(=N)N[C@@]2(c3cc(Oc4ncccn4)ccc3F)CO[C@@H](C3CC3)C[C@H]2C1=O [Example 43, (4aR,6R,8aS)-6-cyclopropyl-8a-(2-fluoro-5-(pyrimidin-2-yloxy)phenyl)-2-imino-3-methylhexahydro-1H-pyrano[3,4-d]pyrimidin-4(4aH)-one] | 191 | 52
CN1C(=N)N[C@@]2(c3cc(Oc4cccc(-c5cocn5)c4)ccc3F)CO[C@@H](C3CC3)C[C@H]2C1=O [Example 35] | 86 | 13
CN1C(=N)N[C@@]2(c3ccc(F)cc3F)CO[C@@H](C3CC3)C[C@H]2C1=O [Example 6, (4aR,6R,8aS)-6-cyclopropyl-8a-(2,4-difluorophenyl)-2-imino-3-methylhexahydro-1H-pyrano[3,4-d]pyrimidin-4(4aH)-one] | 265 | 99
C[C@H]1C[C@H]2C(=O)N(C)C(=N)N[C@@]2(c2cc(Oc3ncccc3F)c(F)cc2F)CO1 [Example 10, (4aR,6S,8aS)-8a-(2,4-difluoro-5-((3-fluoropyridin-2-yl)oxy)phenyl)-2-imino-3,6-dimethylhexahydro-1H-pyrano[3,4-d]pyrimidin-4(4aH)-one] | 2 | 4
CC(C)COc1ccc(F)c([C@]23CO[C@@H](C4CC4)C[C@H]2C(=O)N(C)C(=N)N3)c1 [Example 45, (4aR,6R,8aS)-6-cyclopropyl-8a-(2-fluoro-5-isobutoxyphenyl)-2-imino-3-methylhexahydro-1H-pyrano[3,4-d]pyrimidin-4(4aH)-one] | 25 | 45
C=CCCOc1cc([C@]23CO[C@@H](C)C[C@H]2C(=O)N(C)C(=N)N3)c(F)cn1 [Example 93, (4aR,6S,8aS)-8a-(2-(but-3-en-1-yloxy)-5-fluoropyridin-4-yl)-2-imino-3,6-dimethylhexahydro-1H-pyrano[3,4-d]pyrimidin-4(4aH)-one] | 4.46 | 16.1
CN1C(=N)N[C@@]2(c3cc(Oc4cnccn4)ccc3F)CO[C@@H](C3CC3)C[C@H]2C1=O [Example 39, (4aR,6R,8aS)-6-cyclopropyl-8a-(2-fluoro-5-(pyrazin-2-yloxy)phenyl)-2-imino-3-methylhexahydro-1H-pyrano[3,4-d]pyrimidin-4(4aH)-one] | 73 | 13
COC[C@H]1C[C@H]2C(=O)N(C)C(=N)N[C@@]2(c2cc(Oc3cc(C#N)ccn3)c(F)cc2F)CO1 [Example 2, 2-(2,4-difluoro-5-((4aR,6R,8aS)-2-imino-6-(methoxymethyl)-3-methyl-4-oxohexahydro-1H-pyrano[3,4-d]pyrimidin-8a(8H)-yl)phenoxy)isonicotinonitrile] | 11 | 3
CN1C(=N)N[C@@]2(c3cc(Oc4ncccc4F)ccc3F)COCC[C@H]2C1=O [Example 87, (4aR,8aS)-8a-(2-fluoro-5-((3-fluoropyridin-2-yl)oxy)phenyl)-2-imino-3-methylhexahydro-1H-pyrano[3,4-d]pyrimidin-4(4aH)-one] | 13.5 | 27
CN1C(=N)N[C@@]2(c3cc(Oc4ccnc(-n5cncn5)c4)ccc3F)CO[C@@H](C3CC3)C[C@H]2C1=O [Example 16, (4aR,6R,8aS)-8a-(5-((2-(1H-1,2,4-triazol-1-yl)pyridin-4-yl)oxy)-2-fluorophenyl)-6-cyclopropyl-2-imino-3-methylhexahydro-1H-pyrano[3,4-d]pyrimidin-4(4aH)-one] | 42 | 43
COC[C@H]1C[C@H]2C(=O)N(C)C(=N)N[C@@]2(c2cc(Oc3cc(OC)ccn3)c(F)cc2F)CO1 [Example 4, (4aR,6R,8aS)-8a-(2,4-difluoro-5-((4-methoxypyridin-2-yl)oxy)phenyl)-2-imino-6-(methoxymethyl)-3-methylhexahydro-1H-pyrano[3,4-d]pyrimidin-4(4aH)-one] | 61 | 20
COC[C@H]1C[C@H]2C(=O)N(C)C(=N)N[C@@]2(c2ccc(F)cc2F)CO1 [Example 1, (4aR,6R,8aS)-8a-(2,4-difluorophenyl)-2-imino-6-(methoxymethyl)-3-methylhexahydro-1H-pyrano[3,4-d]pyrimidin-4(4aH)-one] | 237 | 629
C[C@H]1C[C@H]2C(=O)N(C)C(=N)N[C@@]2(c2cc(Oc3ncccc3F)ccc2F)CO1 [Example 19, (4aR,6S,8aS)-8a-(2-fluoro-5-((3-fluoropyridin-2-yl)oxy)phenyl)-2-imino-3,6-dimethylhexahydro-1H-pyrano[3,4-d]pyrimidin-4(4aH)-one] | 5 | 7
COC[C@H]1C[C@H]2C(=O)N(C)C(=N)N[C@@]2(c2cc(Oc3ncccc3F)ccc2F)CO1 [Example 31, (4aR,6R,8aS)-8a-(2-fluoro-5-((3-fluoropyridin-2-yl)oxy)phenyl)-2-imino-6-(methoxymethyl)-3-methylhexahydro-1H-pyrano[3,4-d]pyrimidin-4(4aH)-one] | 8 | 4
CN1C(=N)N[C@@]2(c3cc(OCC4CC4(F)F)ccc3F)CO[C@@H](C3CC3)C[C@H]2C1=O (stereo partly drawn) [Example 52] | 18 | 31
C[C@H]1C[C@H]2C(=O)N(C)C(=N)N[C@@]2(c2cc(Oc3ncccc3F)ncc2F)CO1 [Example 96] | 31.3 | 145
COC1CC(COc2ccc(F)c([C@]34CO[C@@H](C5CC5)C[C@H]3C(=O)N(C)C(=N)N4)c2)C1 (stereo partly drawn) [Example 53, (4aR,6R,8aS)-6-cyclopropyl-8a-(2-fluoro-5-((3-methoxycyclobutyl)methoxy)phenyl)-2-imino-3-methylhexahydro-1H-pyrano[3,4-d]pyrimidin-4(4aH)-one] | 117 | 180
CN1C(=N)N[C@@]2(c3ccc(F)cc3F)CO[C@@H](C(F)F)C[C@H]2C1=O [Example 7, (4aR,6R,8aS)-6-(difluoromethyl)-8a-(2,4-difluorophenyl)-2-imino-3-methylhexahydro-1H-pyrano[3,4-d]pyrimidin-4(4aH)-one] | 254 | 312
C[C@H]1C[C@H]2C(=O)N(C)C(=N)N[C@@]2(c2ccc(F)cc2F)CO1 [Example 11, (4aR,65,8aS)-8a-(2,4-difluorophenyl)-2-imino-3,6-dimethylhexahydro-1H-pyrano[3,4-d]pyrimidin-4(4aH)-one] | 105 | 110
C[C@H]1C[C@H]2C(=O)N(C)C(=N)N[C@@]2(c2cc(Oc3ncc(F)cc3F)ccc2F)CO1 [Example 36, (4aR,6S,8aS)-8a-(5-((3,5-difluoropyridin-2-yl)oxy)-2-fluorophenyl)-2-imino-3,6-dimethylhexahydro-1H-pyrano[3,4-d]pyrimidin-4(4aH)-one] | 24 | 8.9
CCCOc1ccc(F)c([C@]23CO[C@@H](C4CC4)C[C@H]2C(=O)N(C)C(=N)N3)c1 [Example 49, (4aR,6R,8aS)-6-cyclopropyl-8a-(2-fluoro-5-propoxyphenyl)-2-imino-3-methylhexahydro-1H-pyrano[3,4-d]pyrimidin-4(4aH)-one] | 64 | 66
C[C@H]1C[C@H]2C(=O)N(C)C(=N)N[C@@]2(c2cc(Oc3ncc(F)cc3F)ccc2F)CO1 [Example 79, (4aR,6S,8aS)-8a-(5-((3,5-difluoropyridin-2-yl)oxy)-2-fluorophenyl)-2-imino-3,6-dimethylhexahydro-1H-pyrano[3,4-d]pyrimidin-4(4aH)-one] | 41.3 | 43.5
C=CCCn1cc(F)c([C@]23CO[C@@H](C)C[C@H]2C(=O)N(C)C(=N)N3)cc1=O [Example 95, (4aR,6S,8aS)-8a-(1-(but-3-en-1-yl)-5-fluoro-2-oxo-1,2-dihydropyridin-4-yl)-2-imino-3,6-dimethylhexahydro-1H-pyrano[3,4-d]pyrimidin-4(4aH)-one] | 1590 | 8400
CN1C(=N)N[C@@]2(c3cc(Oc4cncc(C(F)F)n4)ccc3F)CO[C@@H](C3CC3)C[C@H]2C1=O [Example 29, (4aR,6R,8aS)-6-cyclopropyl-8a-(5-((6-(difluoromethyl)pyrazin-2-yl)oxy)-2-fluorophenyl)-2-imino-3-methylhexahydro-1H-pyrano[3,4-d]pyrimidin-4(4aH)-one] | 54 | 16
